In one assay the target is T1, tauP301L (Homo sapiens, UniProt P10636, P618L).
T1 construct: we expressed and purified full-length tau featuring a P301L mutation; His6 (N); made in house; host or cells: E. coli BL21 (DE3)
In words: Cellular seeding assay, monomeric tauP301L co-incubated with inhibitor, HEK293 tau-RD(LM)-YFP biosensor cells. To be noted: 0.19 μM monomeric tauP301L + heparin co-incubated 4 days, cells 48 h. Format: cell-based. An excerpt:
Di-N-aminated Hexapeptides Block the Cellular Transmission of Tau Fibrils. […] This mode of propagation is important for the spread of NFTs, neuropil threads, and plaque-associated neurites—all of which contribute to the progression of Alzheimer's disease. To test whether NAP inhibitors are able to block the seeding activity of recombinant tauP301L, we employed HEK293 biosensor cells that stably express a tau-yellow fluorescent protein fusion [tau-RD(LM)-YFP]. When we treated these cells with preformed heparin-induced fibrils of tauP301L, we observed a large number of intracellular tau aggregates, as indicated by punctate fluorescence after 48 h.
Mxyl-NAPs inhibit the seeding capacity of full-length tau in a biosensor cell assay. The ability to halt the prion-like spread of tau fibrils from diseased to healthy cells using designed molecules remains a considerable challenge. […] To test whether mxyl-NAPs could block this seeding activity, we treated HEK293 biosensor cells that express a tau yellow fluorescent protein fusion (tau-RD[LM]-YFP) with tauP301L incubated in the presence or absence of inhibitors. Heparin-induced fibrils of tauP301L grown in the absence of mxyl-NAPs led to strong intracellular FRET signal resulting from endogenous tau-RD(LM)-YFP aggregation. Quantitative brightness threshold-based analysis of puncta within the biosensor cells provided a positive baseline for seed-competent recombinant tau fibrils.
Cellular Seeding Assay. The tauP301L was diluted to a final concentration of […] in an aggregation buffer containing 100 mM sodium acetate, 10 μM heparin, and 2 mM DTT, pH: 7.4. The protein was incubated in a microcentrifuge tube for 4 days at 37° C. with a shaking speed of 100 rpm. Control vials included those wherein (1) buffer was added in place of tauP301L and (2) buffer was added in place of heparin.
For each experiment, cells were plated at a density of 15,000 cells/well in 96-well tissue culture plates.
For seeding by monomeric tau, freshly purified recombinant tauP301L was co-incubated with heparin and NAPs for 4 days in an aggregation buffer at 37° C. (see the above section). Following incubation, the reaction mixture was diluted in the low-serum Opti-MEM medium, mixed with Lipofectamine 2000 in a 20:1 ratio (complex/Lipofectamine) and allowed to incubate for an additional 20 min at rt. A mixture of 0.19 μM tau+1.9 μM or 0.009 μM inhibitors (final concentrations) was added to the cells. Cells were incubated for an additional 48 h before taking measurements on a BioTek Cytation 5 cell imager and a microplate reader. 10×10 pictures/well were taken at 20× magnification under an FITC channel, and the punctate counting was carried out using built-in software. […] Every experiment included control wells (no tau, no heparin, and no NAP). All data plots were generated with SigmaPlot. Error bars shown are standard deviation from technical replicates.

The next assay addresses T2, tauP301L fibrils (Homo sapiens, UniProt P10636, P618L).
T2 construct: we expressed and purified full-length tau featuring a P301L mutation; His6 (N); made in house; host or cells: E. coli BL21 (DE3)
In words: Cellular seeding assay with pre-formed tauP301L fibrils, HEK293 tau-RD(LM)-YFP biosensor cells. It is filed as cell-based. The conditions noted are these: for inhibition of propagation of pre-formed tauP301L fibrils: mature fibrils incubated with NAP 36 h before cells; for IC50: pre-formed 0.19 μM tauP301L fibrils treated 36 h with NAP, cells 48 h, three repeated experiments, read-out: fibril capping IC50 in cells; for inhibition of endogenous tau aggregation without co-incubation: without the 36 h inhibitor + mature fibril co-incubation period. On the procedure:
Given that pathogenic tau can be secreted from cells in various forms (as oligomers, aggregates, or mature fibrils), we tested whether NAPs could block the cellular transmission of pre-formed fibrils. In this experiment, NAPs were incubated with mature tauP301L fibrils for 36 h prior to treatment of cells expressing tau-RD(LM)-YFP. […] We determined a fibril capping IC50 in cells in the 5 μM range across three repeated experiments (FIG. 4).
We then considered the possibility of di-NAPs 12 and 13 entering cells and inhibiting seeding by interacting with endogenous tau-RD(LM)-YFP, rather than with extracellular pre-formed fibrils. We thus repeated the experiment without the 36 h inhibitor+mature fibril co-incubation period.
For seeding experiments with fibrillar tau, recombinant tauP301L fibrils were prepared as described above (see the section on fibril formation) and sonicated for 3 min prior to use in this assay. In a reaction volume of 40, 8 μL of fibrils was diluted with 31 μL of low-serum Opti-MEM medium and then mixed with 1 μL of NAPs (DMSO concentration was constant across various concentrations of inhibitors). The reaction mixture was then allowed to incubate at 37° C. for 36 h, then mixed with 2 μL of Lipofectamine 2000, and further incubated for 20 min at rt. A 10 μL aliquot of this mixture was then added to 90 μL of cells (15,000 cells/well). Cells were incubated for additional 48 h before taking measurements on a BioTek Cytation 5 cell imager and a microplate reader. 10×10 pictures/well were taken at 20× magnification under an FITC channel, and the punctate counting were carried out using built-in software. […] Every experiment included control wells (no tau, no heparin, and no NAP). All data plots were generated with SigmaPlot. IC50 values were calculated by fitting the data set using the sigmoidal logistic four-parameter equation. Error bars represent standard deviation from technical replicates.

“Also recorded” adds a separate entry of the source. *1 amine or outer side, *2 acyl side, *3 side chain or, on linkers, in order; H or OH if unused. Where a SMILES comes first, the peptide text is derived from it. Primed or numbered codes have the meaning given here. [ ]: non-standard residue; d: D form. The star is where a group is joined. aIle′ = Ile with backbone amide N-amino (hydrazide NNH2), CC[C@H](C)[C@@H](C(=O)[*:2])N(N)[*:1]; aVal = Val with backbone amide N-amino (hydrazide NNH2), CC(C)[C@@H](C(=O)[*:2])N(N)[*:1]; X2 = NN([C@@H](Cc1ccc(O)cc1)C(=O)[*:2])[*:1]; X1 = CC[C@H](C)[C@@H](C(=O)[*:2])N(N)[*:1]; N(NH2)LysNH2 = NCCCC[C@@H](C(N)=O)N(N)*; X3 = CC(C)[C@@H](C(=O)[*:2])N(N)[*:1]

T1 sequence (P10636 1-383 isoform P10636-6 P243L): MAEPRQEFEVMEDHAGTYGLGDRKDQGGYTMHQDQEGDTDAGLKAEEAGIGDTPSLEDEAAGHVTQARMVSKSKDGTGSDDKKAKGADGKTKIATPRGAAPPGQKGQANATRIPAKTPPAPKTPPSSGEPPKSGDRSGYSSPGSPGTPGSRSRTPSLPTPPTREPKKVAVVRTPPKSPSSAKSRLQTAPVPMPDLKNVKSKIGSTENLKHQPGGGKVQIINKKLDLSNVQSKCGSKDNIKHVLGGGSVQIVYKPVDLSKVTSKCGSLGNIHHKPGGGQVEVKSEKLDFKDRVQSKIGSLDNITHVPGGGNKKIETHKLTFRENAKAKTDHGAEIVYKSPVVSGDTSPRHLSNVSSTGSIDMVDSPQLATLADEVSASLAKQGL
T2 sequence (P10636 1-383 isoform P10636-6 P243L): as above

Usually IC50 stands for the concentration at which inhibition is half-maximal. On to `CC[C@H](C)[C@@H](C(=O)N[C@H](C(=O)N(N)[C@@H](Cc1ccc(O)cc1)C(=O)N[C@@H](CCCCN)C(N)=O)C(C)C)N(N)C(=O)[C@H](CCC(N)=O)NC(=O)[C@@H](NC(C)=O)C(C)C` [Compound 12, Ac-Val-Gln-aIle-Val-aTyr-Lys-NH2] (Ac-VQ[X1]V[X2]K-NH2), for which, on tauP301L (0.009 μM inhibitor), the “seeding capacity of tauP301L (intracellular puncta)” value (from here on “seeding capacity of tauP301L”) was “less pronounced”. On tauP301L (1.9 μM inhibitor), the “seeding capacity of tauP301L” value is reported as “significantly reduced seeding capacity; also recorded: sufficient to prevent seeding”. Besides, at tauP301L fibrils, the “inhibition of propagation of pre-formed tauP301L fibrils” value is “effectively inhibit propagation in a dose-dependent manner”, the IC50 was about 5 µM and the “inhibition of endogenous tau aggregation without co-incubation” value is listed as “failed to inhibit endogenous tau aggregation”.
Turning to `CC[C@H](C)[C@H](NC(=O)[C@H](CCC(N)=O)NC(=O)[C@@H](NC(C)=O)C(C)C)C(=O)N(N)[C@H](C(=O)N[C@@H](Cc1ccc(O)cc1)C(=O)N(N)[C@@H](CCCCN)C(N)=O)C(C)C` [Compound 13, Ac-Val-Gln-Ile-aVal-Tyr-aLys-NH2] (Ac-VQI[X3]Y-{N(NH2)LysNH2}), on tauP301L (0.009 μM inhibitor), the “seeding capacity of tauP301L” value is reported as “less pronounced”. Also, the “seeding capacity of tauP301L” value on tauP301L (1.9 μM inhibitor) is reported as “significantly reduced seeding capacity; also recorded: sufficient to prevent seeding”. At tauP301L fibrils, the “inhibition of propagation of pre-formed tauP301L fibrils” value was “effectively inhibit propagation in a dose-dependent manner”, the IC50 is about 5 µM and the “inhibition of endogenous tau aggregation without co-incubation” value was “failed to inhibit endogenous tau aggregation”.
Regarding “Ac-aVal-Gln-aIle-Ile-Asn-Lys-NH2 (Ac-[aVal]Q[aIle′]INK-NH2; SMILES CC[C@H](C)[C@H](NC(=O)[C@H]([C@@H](C)CC)N(N)C(=O)[C@H](CCC(N)=O)NC(=O)[C@H](C(C)C)N(N)C(C)=O)C(=O)N[C@@H](CC(N)=O)C(=O)N[C@@H](CCCCN)C(N)=O) [Compound 4]”, the “seeding capacity of tauP301L” value with tauP301L (0.009 μM inhibitor) is listed as “far weaker anti-seeding activity”; with tauP301L (1.9 μM inhibitor), “far weaker anti-seeding activity; also recorded: ineffective”. Moreover, the “inhibition of propagation of pre-formed tauP301L fibrils” value in the assay with tauP301L fibrils was “generally ineffective”.

Values taken from patent US20230399361A1, “MACROCYCLIC PEPTIDES” (UNIVERSITY OF NOTRE DAME DU LAC, priority 2022, published 2023).
